Assay results published in patent publication US12441757B2, “Platform for screening NAD+ binding proteins in a cellular context” (OREGON HEALTH & SCIENCE UNIVERSITY, priority 2020, dated 2025).
Entries after “also recorded” stand apart in the source; their conditions may differ.

How the values were obtained:
PARP-1 [1] = molecular target: T1, PARP-1 (Homo sapiens, UniProt P09874); test: Competition labeling of PARP-1 by 2-ad-BAD; type: binding; details: for block of 2-ad-BAD labeling of PARP-1 by nucleotides: 150 μM nucleotide, 0.3 μM 2-ad-BAD; for dose-dependent block of 2-ad-BAD labeling of PARP-1: competitor dose series
T1 construct: Full length His6-PARP-1 and His6-SUMO-PARP-10 proteins we expressed and purified; His6 (N); made in house
T1 sequence (P09874 whole entry): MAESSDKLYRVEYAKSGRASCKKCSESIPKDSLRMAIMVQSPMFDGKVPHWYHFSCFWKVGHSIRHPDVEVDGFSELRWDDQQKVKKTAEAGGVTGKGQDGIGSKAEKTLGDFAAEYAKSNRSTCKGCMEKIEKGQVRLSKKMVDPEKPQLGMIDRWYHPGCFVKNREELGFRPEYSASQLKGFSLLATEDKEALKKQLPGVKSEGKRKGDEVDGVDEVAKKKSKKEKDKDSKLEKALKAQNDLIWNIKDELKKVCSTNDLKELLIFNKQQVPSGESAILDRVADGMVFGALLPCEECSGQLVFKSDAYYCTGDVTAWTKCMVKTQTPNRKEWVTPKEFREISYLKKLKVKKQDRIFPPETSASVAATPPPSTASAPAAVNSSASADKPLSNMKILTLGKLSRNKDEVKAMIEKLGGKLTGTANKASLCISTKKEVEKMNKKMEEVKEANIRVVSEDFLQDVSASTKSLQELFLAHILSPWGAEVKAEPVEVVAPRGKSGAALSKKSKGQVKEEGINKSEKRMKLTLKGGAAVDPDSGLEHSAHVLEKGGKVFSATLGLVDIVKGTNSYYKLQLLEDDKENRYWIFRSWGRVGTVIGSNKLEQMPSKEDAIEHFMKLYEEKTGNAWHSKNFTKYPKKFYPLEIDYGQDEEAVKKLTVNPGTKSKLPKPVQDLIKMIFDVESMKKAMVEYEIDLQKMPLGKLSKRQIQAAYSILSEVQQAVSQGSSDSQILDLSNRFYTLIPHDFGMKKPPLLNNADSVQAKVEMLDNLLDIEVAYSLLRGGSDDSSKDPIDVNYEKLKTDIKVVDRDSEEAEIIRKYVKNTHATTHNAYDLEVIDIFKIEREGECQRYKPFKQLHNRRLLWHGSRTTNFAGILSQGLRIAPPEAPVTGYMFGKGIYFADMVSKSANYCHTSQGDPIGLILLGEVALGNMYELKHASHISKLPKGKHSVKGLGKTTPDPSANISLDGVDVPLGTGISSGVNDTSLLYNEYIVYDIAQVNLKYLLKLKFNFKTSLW
Text: (§1) FIG. 8. Densitometry analyses of FIG. 3A panels (A,B) comparing the inhibitory effect of nucleotides and (B) panels (C,D) comparing inhibitory effect of PARP inhibitors on PARP-1 and PARP-10 labelling by 2-ad-BAD. TAMRA in-gel fluorescence was normalized to Coomassie staining, except for PARP-1 NAD^+ treated samples where relative to control TAMRA signal is reported due to auto-PARylation induced molecular weight shift and therefore not detectable Coomassie signal at PARP-1 molecular weight of ˜110 kDa. Data are mean±SEM of 3 independent experiments.
(§2) Treatments. Recombinant PARP-1 (250 nM), PARP-10 (250 nM) or AK1 (500 nM; Novus Biologicals) were diluted in 100 mM NaCl, 50 mM HEPES [pH 7.4], 4 mM MgCl2, 0.2 mM TCEP. PARP-1 reactions also contained 10 μg/mL of activated calf thymus DNA (Sigma-Aldrich D4522), unless otherwise noted. In experiments reported in FIG. 2, the samples were treated with 0.1 μM 2-ad-BAD or ad-olaparib for 10 min. In competition experiments reported in FIG. 3 and Figure S3, samples were first treated with 150 μM of indicated nucleotides for 10 minute and then with 0.3 μM 2-ad-BAD for additional 10 min. All treatments occurred at RT. Samples were then kept in the dark or irradiated for 5 min in the RPR-100 Photochemical Reactor (Rayonet) equipped with 350 nm lamps at 4° C.
(§3) Click Chemistry. 25 μL of each sample was mixed with 5 μL of fatty acid free BSA and SDS to give a final Click reaction concentration of 1 mg/mL and 1%, respectively. Click reactions were started by adding 15 μL of PBS based 3× click reaction mix (final 1× concentrations shown): 100 μM Tris[(1-benzyl-1H-1,2,3triazol-4-yl)methyl]amine (TBTA, Click Chemistry Tools), 1 mM CuSO4, 40 μM tetramethylrhodamine (TAMRA)-azide (Click Chemistry Tools), 1 mM Tris(2-carboxyethyl)phosphine hydrochloride (TCEP, Thermo Fisher) and 5% tert-Butyl alcohol to each sample, and let to proceed for 1 h at RT while gently shaking. Reactions were stopped by adding 4× Laemmli sample buffer and boiling at 95° C. for 5 min.
(§4) In gel fluorescence and staining. Samples were loaded to 10 or 12% SDS-polyacrylamide gels and run until the dye front left the gel. In-gel fluorescence was detected with ChemiDoc XRS+ (Biorad) using Rhodamine filter and then the gels were stained with Coomassie blue or Silver using standard protocols.

PARP-10 = molecular target: T2, PARP-10 (Homo sapiens, UniProt Q53GL7); test: Competition labeling of PARP-10 by 2-ad-BAD; type: binding; details: for block of 2-ad-BAD labeling of PARP-10 by nucleotides: 150 μM nucleotide, 0.3 μM 2-ad-BAD; for dose-dependent block of 2-ad-BAD labeling of PARP-10: competitor dose series
T2 construct: Full length His6-PARP-1 and His6-SUMO-PARP-10 proteins we expressed and purified; His6 (N); SUMO (N); made in house
T2 sequence (Q53GL7 1-1025): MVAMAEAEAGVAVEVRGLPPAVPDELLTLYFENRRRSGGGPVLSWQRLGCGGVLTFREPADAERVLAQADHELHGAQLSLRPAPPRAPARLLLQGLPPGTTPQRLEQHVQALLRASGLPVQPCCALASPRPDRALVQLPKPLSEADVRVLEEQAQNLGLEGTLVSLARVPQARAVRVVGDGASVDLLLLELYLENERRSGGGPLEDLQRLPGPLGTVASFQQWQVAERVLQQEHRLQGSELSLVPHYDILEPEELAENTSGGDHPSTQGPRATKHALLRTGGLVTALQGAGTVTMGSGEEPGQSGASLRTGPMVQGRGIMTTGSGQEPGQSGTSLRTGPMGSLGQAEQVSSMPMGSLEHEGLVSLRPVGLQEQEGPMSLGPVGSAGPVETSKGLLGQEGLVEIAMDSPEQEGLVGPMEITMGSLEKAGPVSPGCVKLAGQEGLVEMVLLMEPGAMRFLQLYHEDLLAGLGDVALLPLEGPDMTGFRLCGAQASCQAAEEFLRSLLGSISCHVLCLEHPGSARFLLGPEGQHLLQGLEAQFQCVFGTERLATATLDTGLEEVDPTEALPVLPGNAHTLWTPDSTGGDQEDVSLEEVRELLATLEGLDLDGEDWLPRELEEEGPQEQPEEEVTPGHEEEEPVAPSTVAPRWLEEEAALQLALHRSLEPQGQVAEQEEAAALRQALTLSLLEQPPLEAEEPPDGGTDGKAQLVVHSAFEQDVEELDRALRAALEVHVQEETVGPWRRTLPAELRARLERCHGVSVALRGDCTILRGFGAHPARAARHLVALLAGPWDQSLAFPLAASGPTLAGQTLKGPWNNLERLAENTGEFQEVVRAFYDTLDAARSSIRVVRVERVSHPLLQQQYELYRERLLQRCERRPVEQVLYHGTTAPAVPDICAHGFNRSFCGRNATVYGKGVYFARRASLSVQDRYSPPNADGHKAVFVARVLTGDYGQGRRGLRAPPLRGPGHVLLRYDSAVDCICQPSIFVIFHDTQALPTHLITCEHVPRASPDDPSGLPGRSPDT
Text: as §1, §2, §3, §4

Adenylate kinase 1 (AK1) = molecular target: T3, Adenylate kinase 1 (AK1) (Homo sapiens, UniProt P00568); test: Labeling of recombinant AK1 by 2-ad-BAD and nucleotide competition; type: binding; details: 150 μM competitor, 0.3 μM 2-ad-BAD
T3 construct: purchased Novus Biologicals NBP1-50855
T3 sequence (P00568 1-194): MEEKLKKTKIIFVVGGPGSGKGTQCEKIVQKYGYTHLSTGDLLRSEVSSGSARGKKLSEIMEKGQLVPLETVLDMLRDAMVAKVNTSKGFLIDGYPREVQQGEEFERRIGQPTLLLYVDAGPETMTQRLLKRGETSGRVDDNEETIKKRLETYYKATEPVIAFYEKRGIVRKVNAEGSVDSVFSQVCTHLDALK
Experimental: (§5) FIG. 10. Validation of Adenylate kinase 1 (AK1) as a putative NAD^+/NADH binding protein. […] Recombinant AK1 (500 nM) in 100 mM NaCl, 50 mM HEPES [pH 7.4], 4 mM MgCl2, 0.2 mM TCEP was incubated with 150 μM of indicated competitor molecule for 10 min, followed by 10 min treatment with 0.3 μM 2-ad-BAD. Samples were then subjected to UV light for 5 min, conjugated to TAMRA using Click chemistry, separated by SDS-PAGE and in-gel fluorescence was recorded. […] (FIG. 10B) A differential scanning fluorimetry assay is supportive of NADH as novel AK1 ligand. Recombinant AK1 (0.1 mg/mL) in 100 mM NaCl, 50 mM HEPES, pH 7.4, 4 mM MgCl2, 7.5× SYPRO Orange was tested for thermal stability in the absence or presence of indicated nucleotides at 1 mM. Ordinate reports on the difference of melt peak temperature prompted by indicated treatments. Data are mean±SEM of 3 independent experiments.
as §2, §3, §4

AK1 [2] = molecular target: T4, AK1 (Homo sapiens, UniProt P00568); test: Differential scanning fluorimetry (DSF) of AK1; type: binding; details: nucleotide 1 mM, AK1 0.1 mg/mL
T4 construct: purchased Novus Biologicals NBP1-50855
T4 sequence (P00568 1-194): T3 sequence (P00568 1-194)
Experimental: as §5
Differential scanning fluorimetry was used to detect the AK1-ligand interaction. […] AK1 thermal stability upon treatment with ddH2O, ATP, ADP, NAD^+or NADH, 1 mM each, was measured on Biorad RT-PCR thermocycler using Cal Orange 560 filter. […] The melting temperature (Tm) for each sample was determined by calculating first derivative of the fluorescence (d(RFU)/dT) and shift in thermal stability (ΔTm) was calculated by subtracting vehicle—treated sample Tm from ligand-treated sample Tm.

AK1 [3] = details: cited from earlier work
squid AK = details: cited from earlier work
PARP-1 [4] = molecular target: T1, PARP-1; test: In vitro photocrosslinking and click chemistry labeling of PARP-1 (in-gel fluorescence); type: binding; details: 0.1 μM probe, UV 350 nm 5 min, presence or absence of damaged DNA
Experimental: as §2
Click Chemistry. 25 μL of each sample was mixed with 5 μL of fatty acid free BSA and SDS to give a final Click reaction concentration of 1 mg/mL and 1%, respectively. […]
In gel fluorescence and staining. […] In-gel fluorescence was detected with ChemiDoc XRS+ (Biorad) using Rhodamine filter and then the gels were stained with Coomassie blue or Silver using standard protocols.

SMILES	block of 2-ad-BAD labeling of PARP-1 by nucleotides (PARP-1 [1])	block of 2-ad-BAD labeling of PARP-10 by nucleotides (PARP-10)	competition of 2-ad-BAD labeling of recombinant AK1 (Adenylate kinase 1 (AK1))	further results
NC(=O)c1ccc[n+]([C@@H]2O[C@H](COP(=O)([O-])OP(=O)(O)OC[C@H]3O[C@@H](n4cnc5c(N)ncnc54)[C@H](O)[C@@H]3O)[C@@H](O)[C@H]2O)c1 [NAD^+, Nicotinamide adenine dinucleotide]	reduced	reduced	to a lesser extent	shift in AK1 thermal stabilization (ΔTm) compared to vehicle control (AK1 [2]): caused a shift in AK1 thermal stabilization; inhibition of AK1 activity (AK1 [3]): competitively inhibited
CC#Cc1ccc2c(=O)[nH]c(CSc3ccc(C(=O)O)cc3)nc2c1C [ITK6]				dose-dependent block of 2-ad-BAD labeling of PARP-1 (PARP-1 [1]): did not block the labeling of PARP-1; dose-dependent block of 2-ad-BAD labeling of PARP-10 (PARP-10): blocked the labeling of PARP-10
NC(=O)c1cc(F)cc2c1C(=O)N(C1CCN(C3CCC(F)(F)CC3)CC1)C2 [NMS-P118, 2-[1-(4,4-Difluorocyclohexyl)Piperidin-4-Yl]-6-Fluoro-3-Oxo-2,3-Dihydro-1H-Isoindole-4-Carboxamide]				dose-dependent block of 2-ad-BAD labeling of PARP-1 (PARP-1 [1]): blocked the labeling of PARP-1; dose-dependent block of 2-ad-BAD labeling of PARP-10 (PARP-10): did not block the labeling of PARP-10
NC(=O)C1=CN([C@@H]2O[C@H](COP(=O)(O)OP(=O)(O)OC[C@H]3O[C@@H](n4cnc5c(N)ncnc54)[C@H](O)[C@@H]3O)[C@@H](O)[C@H]2O)C=CC1 [NADH]	reduced	reduced	effectively competed	shift in AK1 thermal stabilization (ΔTm) compared to vehicle control (AK1 [2]): caused a shift in AK1 thermal stabilization; also recorded: showed a thermal shift similar to ATP and ADP; mode of inhibition of squid AK (squid AK): non-competitive inhibitor; inhibition of AK1 activity (AK1 [3]): competitively inhibited
C#CCCC1(CCOC(=O)N2CCN(C(=O)c3cc(Cc4n[nH]c(=O)c5ccccc45)ccc3F)CC2)N=N1 [ad-olaparib, 2-(3-(but-3-yn-1-yl)-3H-diazirin-3-yl)ethyl 4-(2-fluoro-5-((4-oxo-3,4-dihydrophthalazin-1-yl)methyl)benzoyl) piperazine-1-carboxylate]				UV-dependent labeling of PARP-1, dependence on damaged DNA (PARP-1 [4]): labels PARP-1 independent of PARP-1 binding to damaged DNA

The next lines start with results.

block of 2-ad-BAD labeling of PARP-1 by nucleotides (PARP-1 [1])	block of 2-ad-BAD labeling of PARP-10 by nucleotides (PARP-10)	competition of 2-ad-BAD labeling of recombinant AK1 (Adenylate kinase 1 (AK1))	SMILES	further results
did not block	did not block		Nc1ncnc2c1ncn2[C@@H]1O[C@H](COP(=O)(O)OP(=O)(O)O)[C@@H](O)[C@H]1O [ADP]	
did not block	did not block	to a lesser extent	Nc1ncnc2c1ncn2[C@@H]1O[C@H](COP(=O)(O)OP(=O)(O)OC[C@H]2OC(O)[C@H](O)[C@@H]2O)[C@@H](O)[C@H]1O (stereo partly shown) [ADPr, ADP-ribose]	
		effectively competed	Nc1ncnc2c1ncn2[C@@H]1O[C@H](COP(=O)(O)O)[C@@H](O)[C@H]1O [AMP]	
did not block	did not block	effectively competed	Nc1ncnc2c1ncn2[C@@H]1O[C@H](COP(=O)(O)OP(=O)(O)OP(=O)(O)O)[C@@H](O)[C@H]1O [ATP, adenosine triphosphate]	
